In PubChem BioAssay (NCI) one finds GI50 and TGI data, which are given here for 20 compounds.

Among the test systems are A549 NSCLC; HCT-116 colon; HL-60(TB) leukemia; HS 578T breast; PC-3 prostate; SNB-19 CNS; T-47D breast.
Common to all, as to experiment: NCI-60 cell line screen, 48 h

Where “and” joins values, the source holds several entries; their conditions need not be identical. Equal values may be shown once.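 Grown in 96-well plates, cells were treated for 48 hours with each compound at five concentrations. Insufficient inhibition: endpoint recorded as highest concentration tested. GI50: concentration for 50% inhibition of growth. TGI marks complete inhibition of growth.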

For `COc1cc(C2C3=C(COC3=O)Nc3c2ccc2c3CCCC2)cc2c1OCO2` (configuration not stated), the GI50 in the test on A549 NSCLC is 0.0444 µM; in the test on HCT-116 colon, 0.039 µM; in the test with HL-60(TB) leukemia, 0.0316 µM; with HS 578T breast, 0.0367 µM; in the test on PC-3 prostate, 0.0387 µM; in the test with SNB-19 CNS, 0.0531 µM. The TGI with A549 NSCLC was over 89.3 µM; in the test on HCT-116 colon it was 3.29 µM; in the test on HL-60(TB) leukemia, 0.09 µM; with HS 578T breast, 45.5 µM; in the test with PC-3 prostate, over 100 µM; with SNB-19 CNS, over 77.4 µM.
In the case of `CC(C)n1nc(-c2ccc3oc(N)nc3c2)c2c(N)ncnc21`, the GI50 with A549 NSCLC is 0.0156 µM and 0.0191 µM; in the test on HCT-116 colon it was 0.0387 µM and 0.0361 µM; in the test on HL-60(TB) leukemia it was 0.0869 µM and 0.168 µM; in the test with HS 578T breast it was under 0.01 µM; in the test with PC-3 prostate it was under 0.01 µM; in the test with SNB-19 CNS, 0.0336 µM and 0.027 µM. In addition, the GI50 in the test with T-47D breast was under 0.01 µM. In addition, the TGI in the test on A549 NSCLC is 2.88 µM and 1.03 µM; in the test with HCT-116 colon, 15 µM; in the test with HL-60(TB) leukemia, 12.3 µM and 11.2 µM; in the test on HS 578T breast, 0.0323 µM and 0.0517 µM; with PC-3 prostate it was 3.94 µM and 2.57 µM; in the test on SNB-19 CNS, 1.94 µM and 1.33 µM. Besides, the TGI in the test on T-47D breast was 0.016 µM and 0.0155 µM.
With `C/C(=N\NC(=S)N1CC2CCC(CC2)C1)c1cccc(C)n1`, the GI50 was 0.248 µM in the test on A549 NSCLC, 0.00016 µM in the test with HL-60(TB) leukemia and 0.26 µM in the test on SNB-19 CNS. Besides, the TGI is 12.9 µM in the test on A549 NSCLC; 2.78 µM in the test on HCT-116 colon; 4.45 µM in the test on HL-60(TB) leukemia; 27 µM in the test with HS 578T breast; 15.6 µM with PC-3 prostate; 14.3 µM in the test on SNB-19 CNS. The same compound returned a TGI with T-47D breast of 20.6 µM.
Regarding `C[C@]1(Cn2ccnn2)C(C(=O)O)N2C(=O)CC2S1(=O)=O` (some centres not stated), the GI50 in the test on A549 NSCLC, in the test on HCT-116 colon, with HL-60(TB) leukemia, with HS 578T breast, with PC-3 prostate and in the test on SNB-19 CNS was over 100 µM in each case. Further, the GI50 in the test with T-47D breast is over 100 µM. The TGI with A549 NSCLC, in the test with HCT-116 colon, with HL-60(TB) leukemia, with HS 578T breast, in the test on PC-3 prostate and in the test with SNB-19 CNS was over 100 µM each time. This compound showed a TGI with T-47D breast of over 100 µM.
On to `CC(C)CC(Nc1c(O)ccc2ccccc12)C(=O)O` (configuration not stated), for which the TGI in the test on A549 NSCLC is over 100 µM; in the test on HCT-116 colon, over 100 µM; in the test on HL-60(TB) leukemia, over 100 µM; in the test with HS 578T breast it was 95.9 µM; in the test on SNB-19 CNS, over 100 µM; with T-47D breast it was over 100 µM.
For `CCCCNC(=O)c1cc(NCc2cc(O)ccc2O)ccc1O`, the GI50 with A549 NSCLC is 21.9 µM; with HCT-116 colon, 18.8 µM; with HL-60(TB) leukemia it was 2.06 µM; in the test with HS 578T breast it was 24.8 µM; with PC-3 prostate, 10.3 µM; in the test on SNB-19 CNS, 41.4 µM. Also, the GI50 with T-47D breast was 6.39 µM. Further, the TGI was 48.2 µM in the test with A549 NSCLC; 37.5 µM in the test with HCT-116 colon; 6.2 µM in the test with HL-60(TB) leukemia; over 100 µM in the test with HS 578T breast; 27.4 µM in the test on PC-3 prostate; over 100 µM with SNB-19 CNS. In the test with T-47D breast, the TGI amounted to 39.1 µM.
Regarding `Cc1cc(C(=O)NC(CCC(=O)O)C(=O)O)sc1CCC1CNc2nc(N)[nH]c(=O)c2C1` (configuration not stated), the GI50 is 0.0437 µM and 0.156 µM with A549 NSCLC; < 0.0198 µM and 0.0357 µM with HCT-116 colon; 0.0366 µM and 0.0558 µM in the test with HL-60(TB) leukemia; 2.13 µM and 8.89 µM with HS 578T breast; under 0.01 µM in the test with PC-3 prostate; 0.0783 µM and 0.606 µM in the test with SNB-19 CNS. Moreover, the TGI with A549 NSCLC, with HCT-116 colon, in the test on HL-60(TB) leukemia, in the test on HS 578T breast, in the test with PC-3 prostate and with SNB-19 CNS was over 100 µM each time. For the same compound, the TGI in the test on T-47D breast was over 100 µM.
In the case of `CCCNC(=O)c1ccc(Cl)cc1Cl`, the GI50 with A549 NSCLC, in the test on HCT-116 colon, with HL-60(TB) leukemia, in the test with PC-3 prostate, with SNB-19 CNS and with T-47D breast was over 100 µM throughout. In addition, the TGI with A549 NSCLC, with HCT-116 colon, in the test on HL-60(TB) leukemia, in the test with PC-3 prostate, in the test on SNB-19 CNS and in the test on T-47D breast was over 100 µM each time.
On to `COc1cc2ncnc(Nc3ccc4c(cnn4Cc4ccccc4)c3)c2cc1OC`, for which the GI50 with A549 NSCLC was over 17.9 µM; in the test with HCT-116 colon, over 21.3 µM; in the test on HL-60(TB) leukemia, 12.5 µM; with HS 578T breast it was over 21 µM; in the test on PC-3 prostate it was over 18.2 µM; in the test on SNB-19 CNS, over 25 µM. Besides, the GI50 with T-47D breast was 2.16 µM. Also, the TGI is over 25 µM with A549 NSCLC; over 25 µM in the test on HCT-116 colon; over 21 µM in the test with HL-60(TB) leukemia; over 25 µM in the test on HS 578T breast; over 25 µM in the test on PC-3 prostate; over 25 µM in the test on SNB-19 CNS. Also, in the test on T-47D breast, the TGI was over 25 µM.
On to `Cc1cc(N2CCCC2)nc(NCc2cc(Nc3ccnc4cc(Cl)ccc34)ccc2F)n1`, for which the GI50 was 1.71 µM in the test on A549 NSCLC; 0.198 µM with HCT-116 colon; 1.99 µM in the test with HL-60(TB) leukemia; 1.51 µM with HS 578T breast; 1.19 µM in the test with PC-3 prostate. Moreover, the TGI in the test with A549 NSCLC worked out at 3.47 µM; in the test on HCT-116 colon it was 0.557 µM; in the test with HL-60(TB) leukemia it was 4.49 µM; with HS 578T breast it was 3.91 µM; in the test on PC-3 prostate, 2.58 µM.
For the compound `CC(/C=C/c1ccccc1)=N\NC(N)=S`, the TGI with A549 NSCLC is over 100 µM; in the test on HCT-116 colon, over 100 µM; with HL-60(TB) leukemia, 41.7 µM; in the test on PC-3 prostate, over 100 µM; with SNB-19 CNS it was 79.2 µM; in the test with T-47D breast, 49.1 µM.
For `Cc1ccc(C2=C(c3ccccc3)C(c3ccccc3)Oc3ccc(C)cc32)cc1` (configuration not stated), the GI50 with A549 NSCLC was 3.87 µM; in the test on HCT-116 colon, 1.68 µM; with HL-60(TB) leukemia, 11 µM; with HS 578T breast, 2.74 µM; in the test on PC-3 prostate, 12.8 µM. The TGI is 10.7 µM in the test with A549 NSCLC; 3.43 µM with HCT-116 colon; 40.7 µM with HL-60(TB) leukemia; 10.1 µM with HS 578T breast; 34.4 µM in the test on PC-3 prostate.
For the compound `Cc1ccc(C2=Nc3c(N)ncnc3NC(c3ccc4c(c3)OCO4)C2)cc1` (configuration not stated), the GI50 was 7.09 µM in the test on A549 NSCLC; 0.718 µM in the test with HL-60(TB) leukemia; 7.28 µM in the test on HS 578T breast; 38.2 µM with SNB-19 CNS; 5.72 µM in the test with T-47D breast. Also, the TGI is 52.9 µM in the test with A549 NSCLC; over 100 µM with HL-60(TB) leukemia; 40 µM in the test on HS 578T breast; over 100 µM with SNB-19 CNS; over 100 µM in the test on T-47D breast.
Regarding `C=CC/C(=C\COP(=O)(OCc1ccc([N+](=O)[O-])o1)N(C)CCCCCl)CC/C=C(\C)CCC=C(C)C` (configuration not stated), the GI50 with A549 NSCLC is 13.9 µM; in the test on HCT-116 colon it was 3.76 µM; with HL-60(TB) leukemia, 21.9 µM; with PC-3 prostate, 12 µM; with SNB-19 CNS it was 19.5 µM; in the test with T-47D breast, 20.6 µM. The TGI was 26.9 µM in the test with A549 NSCLC; 18 µM in the test with HCT-116 colon; over 100 µM in the test on HL-60(TB) leukemia; 24.3 µM in the test with PC-3 prostate; 34.9 µM in the test with SNB-19 CNS; 53.9 µM in the test on T-47D breast.
With `OCCNCCCOc1ccc2ncnc(Nc3ccc(Oc4cccc(C(F)(F)F)c4)c(Cl)c3)c2c1`, in the test on PC-3 prostate, the GI50 was 1.66 µM and the TGI was 3.21 µM.
As for `NCCOc1ccccc1/C=C1\c2ccccc2-c2ccc([N+](=O)[O-])cc21`, the GI50 in the test on HCT-116 colon is 1.25 µM; in the test on HL-60(TB) leukemia it was 1.54 µM; in the test on HS 578T breast, 1.72 µM; in the test with PC-3 prostate it was 1.52 µM; with T-47D breast, 1.66 µM. Further, the TGI in the test on HCT-116 colon worked out at 2.51 µM; in the test on HL-60(TB) leukemia, 3.07 µM; with HS 578T breast, 3.79 µM; in the test with PC-3 prostate, 2.96 µM; in the test on T-47D breast it was 3.44 µM.
As for `COc1c(-c2ccc(O)c(O)c2)oc2c(O)c(O)cc(O)c2c1=O`, the TGI in the test with A549 NSCLC, with HCT-116 colon, with HS 578T breast, in the test on PC-3 prostate, in the test with SNB-19 CNS and in the test on T-47D breast was over 100 µM each time.
On to `Cc1ccc(C2=C(c3ccc(C)cc3)C3(c4ccc(C)cc4)C4C(=O)c5ccccc5C(=O)C4C2(c2ccc(C)cc2)S3=O)cc1` (configuration not stated), for which the GI50 in the test with A549 NSCLC was over 100 µM; in the test on HCT-116 colon it was over 100 µM; in the test on HS 578T breast it was over 100 µM; with PC-3 prostate, over 100 µM; in the test on SNB-19 CNS, 63.7 µM; in the test on T-47D breast it was 72.4 µM. The TGI in the test on A549 NSCLC, in the test with HCT-116 colon, in the test with HS 578T breast, in the test with PC-3 prostate, with SNB-19 CNS and in the test with T-47D breast was over 100 µM each time.
Take `Oc1cccc(/C=N/Nc2nnc(N/N=C/c3cccc(O)c3)c3ccccc23)c1`: the TGI in the test on A549 NSCLC was 57.5 µM; in the test on HCT-116 colon it was 43.1 µM; in the test on HS 578T breast, 52.9 µM; in the test on PC-3 prostate, 44.4 µM; in the test on SNB-19 CNS, over 100 µM; with T-47D breast, 61.8 µM.
`CCCCc1n(Cc2ccc3ccccc3c2)cc[n+]1Cc1ccc2ccccc2c1`: in the test with HCT-116 colon, the GI50 is 0.663 µM and the TGI turned out to be 2.08 µM. In the test with PC-3 prostate, the GI50 is 1.11 µM and the TGI is 2.53 µM.
